Results taken from US20040053817A1, “Delayed-release pharmaceutical formulations” (priority 2000, published 2004).

Experiments:
[1] = Water-solubility of human C-peptide; type: physicochemical; details: observed when preparing formulations; phase-separation methods gave high losses of active substance
[2] = cited from earlier work

In the case of `CC(C)C[C@H](NC(=O)[C@H](C)NC(=O)[C@H](CC(C)C)NC(=O)[C@@H]1CCCN1C(=O)[C@H](CCC(N)=O)NC(=O)[C@H](CC(C)C)NC(=O)[C@H](CO)NC(=O)CNC(=O)[C@H](C)NC(=O)CNC(=O)[C@@H]1CCCN1C(=O)CNC(=O)CNC(=O)CNC(=O)[C@H](CC(C)C)NC(=O)[C@H](CCC(=O)O)NC(=O)[C@@H](NC(=O)[C@H](CCC(N)=O)NC(=O)CNC(=O)[C@@H](NC(=O)[C@H](CCC(N)=O)NC(=O)[C@H](CC(C)C)NC(=O)[C@H](CC(=O)O)NC(=O)[C@H](CCC(=O)O)NC(=O)[C@H](C)NC(=O)[C@@H](N)CCC(=O)O)C(C)C)C(C)C)C(=O)N[C@@H](CCC(=O)O)C(=O)NCC(=O)N[C@@H](CO)C(=O)N[C@@H](CC(C)C)C(=O)N[C@@H](CCC(N)=O)C(=O)O` [C-peptide], the water-solubility [1] is given as “strong water-solubility” and the “half-life of plasma in humans” value [2] is given as “about 40 minutes”.
